Reference: PubChem BioAssay AID248 (DTP/NCI, 2004)
Values joined by “and” are separate entries in the source; they are usually repeats but may differ in a detail not shown here. Equal values may be shown once. Toxic doses and inconclusive results are not listed. Cut-off read from the data, not from the text of the source: active = T/C of 150% or more; inactive = T/C below 125%.

Tested on: L1210 leukemia ip in BDF1 mice, survival T/C
Assay: NCI In Vivo Anticancer Drug Screen. Data for tumor model L1210 Leukemia (intraperitoneal) in B6D2F1 (BDF1) mice
Settings: endpoint: mean survival time, higher = longer survival
Summary of the method: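 Each compound was tested against a transplantable tumor grown in mice. The endpoint was survival, with treated animals benchmarked against vehicle controls as a simple ratio.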

[1] = dose: 100.0 mg/kg/injection, schedule: Q04DX002 (ip), vehicle: saline
[2] = dose: 200.0 mg/kg/injection, schedule: Q04DX002 (ip), vehicle: saline
[3] = dose: 100.0 mg/kg/injection, schedule: Q04DX003 (ip), vehicle: Klucel (hydroxypropylcellulose) (HPC)
[4] = dose: 100.0 mg/kg/injection, schedule: Q04DX003 (ip), vehicle: saline with Tween-80
[5] = dose: 400.0 mg/kg/injection, schedule: Q04DX003 (ip), vehicle: saline with Tween-80
[6] = dose: 200.0 mg/kg/injection, schedule: Q04DX003 (ip), vehicle: saline with Tween-80
[7] = dose: 100.0 mg/kg/injection, schedule: Q01DX009 (ip), vehicle: Klucel (hydroxypropylcellulose) (HPC)
[8] = dose: 100.0 mg/kg/injection, schedule: Q04DX002 (ip), vehicle: Klucel (hydroxypropylcellulose) (HPC)
[9] = dose: 200.0 mg/kg/injection, schedule: Q04DX002 (ip), vehicle: Klucel (hydroxypropylcellulose) (HPC)
[10] = dose: 400.0 mg/kg/injection, schedule: Q04DX002 (ip), vehicle: Klucel (hydroxypropylcellulose) (HPC)
[11] = dose: 100.0 mg/kg/injection, schedule: Q01DX001 (ip), vehicle: carboxymethylcellulose (CMC)
[12] = dose: 200.0 mg/kg/injection, schedule: Q01DX001 (ip), vehicle: carboxymethylcellulose (CMC)
[13] = dose: 400.0 mg/kg/injection, schedule: Q01DX001 (ip), vehicle: carboxymethylcellulose (CMC)
[14] = dose: 100.0 mg/kg/injection, schedule: Q04DX003 (ip), vehicle: saline
[15] = dose: 200.0 mg/kg/injection, schedule: Q04DX003 (ip), vehicle: saline
[16] = dose: 400.0 mg/kg/injection, schedule: Q04DX003 (ip), vehicle: saline

Measured: T/C

C(=P(c1ccccc1)(c1ccccc1)c1ccccc1)[P+](c1ccccc1)(c1ccccc1)c1ccccc1
inactive: dose: 0.78 mg/kg/injection, schedule: Q01DX009 (ip), vehicle: saline 102 % of control and 109 % of control | dose: 1.56 mg/kg/injection, schedule: Q01DX009 (ip), vehicle: saline 98 % of control and 88 % of control | dose: 3.12 mg/kg/injection, schedule: Q01DX009 (ip), vehicle: saline 100 % of control | dose: 3.13 mg/kg/injection, schedule: Q01DX001 (ip), vehicle: saline 90 % of control | dose: 3.13 mg/kg/injection, schedule: Q04DX002 (ip), vehicle: saline 97 % of control | dose: 3.13 mg/kg/injection, schedule: Q04DX003 (ip), vehicle: saline 102 % of control | dose: 6.0 mg/kg/injection, schedule: Q01DX009 (ip), vehicle: saline 106 % of control | dose: 6.25 mg/kg/injection, schedule: Q01DX001 (ip), vehicle: saline 100 % of control | dose: 6.25 mg/kg/injection, schedule: Q01DX009 (ip), vehicle: saline 117 % of control | dose: 6.25 mg/kg/injection, schedule: Q04DX002 (ip), vehicle: saline 96 % of control and 100 % of control | dose: 6.25 mg/kg/injection, schedule: Q04DX003 (ip), vehicle: saline 106 % of control | dose: 9.3 mg/kg/injection, schedule: Q01DX009 (ip), vehicle: saline 95 % of control | dose: 12.5 mg/kg/injection, schedule: Q01DX001 (ip), vehicle: saline 97 % of control | dose: 12.5 mg/kg/injection, schedule: Q01DX009 (ip), vehicle: saline 115 % of control and 117 % of control | dose: 12.5 mg/kg/injection, schedule: Q04DX002 (ip), vehicle: saline 97 % of control and 99 % of control | dose: 12.5 mg/kg/injection, schedule: Q04DX003 (ip), vehicle: saline 101 % of control | dose: 13.0 mg/kg/injection, schedule: Q01DX009 (ip), vehicle: saline 93 % of control | [1] 90 % of control | [2] 93 % of control

O=C(NCCCCC(NC(=O)OCc1ccccc1)C(=O)NCCCCCCN(CCCCCCNC(=O)C(CCCCNC(=O)OCc1ccccc1)NC(=O)OCc1ccccc1)C(=O)C(CCCCNC(=O)OCc1ccccc1)NC(=O)OCc1ccccc1)OCc1ccccc1 (centres undefined)
inactive: dose: 100.0 mg/kg/injection, schedule: Q01DX001 (ip), vehicle: saline 100 % of control | dose: 200.0 mg/kg/injection, schedule: Q01DX001 (ip), vehicle: saline 94 % of control | dose: 400.0 mg/kg/injection, schedule: Q01DX001 (ip), vehicle: saline 94 % of control

CN(/N=C/c1ccccc1)C(=N)N
inactive: dose: 5.0 mg/kg/injection, schedule: Q01DX009 (ip), vehicle: saline 106 % of control | dose: 10.0 mg/kg/injection, schedule: Q01DX001 (ip), vehicle: saline 98 % of control | dose: 10.0 mg/kg/injection, schedule: Q01DX009 (ip), vehicle: saline 93 % of control | dose: 10.0 mg/kg/injection, schedule: Q04DX003 (ip), vehicle: saline 101 % of control | dose: 20.0 mg/kg/injection, schedule: Q01DX001 (ip), vehicle: saline 101 % of control | dose: 20.0 mg/kg/injection, schedule: Q01DX009 (ip), vehicle: saline 104 % of control | dose: 20.0 mg/kg/injection, schedule: Q04DX003 (ip), vehicle: saline 97 % of control | dose: 40.0 mg/kg/injection, schedule: Q01DX001 (ip), vehicle: saline 93 % of control | dose: 40.0 mg/kg/injection, schedule: Q04DX003 (ip), vehicle: saline 103 % of control | dose: 62.5 mg/kg/injection, schedule: Q04DX003 (ip), vehicle: saline 117 % of control | dose: 75.0 mg/kg/injection, schedule: Q01DX001 (ip), vehicle: saline 100 % of control

O=C(/C(=C/c1ccccc1)CN1CCOCC1)c1ccccc1
inactive: [3] 96 % of control

CC(=O)[O][Hg][c]1c(C)c(C)c(C)c(C)c1C
inactive: dose: 12.5 mg/kg/injection, schedule: Q04DX003 (ip), vehicle: saline with Tween-80 87 % of control | dose: 25.0 mg/kg/injection, schedule: Q04DX003 (ip), vehicle: saline with Tween-80 87 % of control | dose: 50.0 mg/kg/injection, schedule: Q04DX003 (ip), vehicle: saline with Tween-80 87 % of control

CC(C)C1=CC2=CCC3C(C)(C#N)CCCC3(C)C2CC1CC#N (centres undefined)
inactive: [4] 88 % of control | [5] 92 % of control

Cc1ccc([N+](=O)[O-])cc1NC(=O)Oc1ccc(Cl)cc1Cl
inactive: [4] 104 % of control | [6] 100 % of control

Cc1cc(C)c(C#N)c(=O)[nH]1
inactive: [7] 97 % of control | [8] 100 % of control | dose: 200.0 mg/kg/injection, schedule: Q01DX009 (ip), vehicle: Klucel (hydroxypropylcellulose) (HPC) 97 % of control | [9] 92 % of control | dose: 400.0 mg/kg/injection, schedule: Q01DX009 (ip), vehicle: Klucel (hydroxypropylcellulose) (HPC) 88 % of control | [10] 95 % of control

Nc1nc(CNc2ccccc2)nc(Nc2ccccc2)n1
inactive: [4] 89 % of control | [6] 101 % of control | [5] 89 % of control

CC(C#N)c1cccc(C(=O)O)c1 (centres undefined)
inactive: [11] 105 % of control | [12] 105 % of control | [13] 96 % of control

CC(CO)CCC(=O)C(C)C1C2(CC3C4CCC5CC(O)CCC5(C)C4CCC31C)SCCS2 (centres undefined)
inactive: dose: 25.0 mg/kg/injection, schedule: Q04DX002 (ip), vehicle: saline with Tween-80 100 % of control | dose: 50.0 mg/kg/injection, schedule: Q04DX002 (ip), vehicle: saline with Tween-80 100 % of control | dose: 100.0 mg/kg/injection, schedule: Q04DX002 (ip), vehicle: saline with Tween-80 96 % of control

Cc1c(C=NCCNCCN=Cc2[nH]c(=S)[nH]c(=O)c2C)[nH]c(=S)[nH]c1=O
inactive: dose: 44.0 mg/kg/injection, schedule: Q04DX003 (ip), vehicle: saline with Tween-80 97 % of control and 98 % of control | dose: 66.0 mg/kg/injection, schedule: Q04DX003 (ip), vehicle: saline with Tween-80 106 % of control and 108 % of control | [4] 103 % of control and 110 % of control | dose: 150.0 mg/kg/injection, schedule: Q04DX003 (ip), vehicle: saline with Tween-80 98 % of control and 104 % of control | [6] 110 % of control | [5] 104 % of control

CC(=O)Oc1c(C)cccc1C(=O)O
inactive: [3] 92 % of control | dose: 200.0 mg/kg/injection, schedule: Q04DX003 (ip), vehicle: Klucel (hydroxypropylcellulose) (HPC) 103 % of control | dose: 400.0 mg/kg/injection, schedule: Q04DX003 (ip), vehicle: Klucel (hydroxypropylcellulose) (HPC) 88 % of control

NNC(=O)c1ccccc1[N+](=O)[O-]
inactive: dose: 25.0 mg/kg/injection, schedule: Q01DX009 (ip), vehicle: Klucel (hydroxypropylcellulose) (HPC) 95 % of control | dose: 50.0 mg/kg/injection, schedule: Q01DX009 (ip), vehicle: Klucel (hydroxypropylcellulose) (HPC) 94 % of control | dose: 50.0 mg/kg/injection, schedule: Q04DX003 (ip), vehicle: Klucel (hydroxypropylcellulose) (HPC) 100 % of control | [7] 101 % of control | [3] 100 % of control

CCOC(=O)CCC(NC(=O)c1cc([N+](=O)[O-])cc([N+](=O)[O-])c1)C(=O)OCC (centres undefined)
inactive: [14] 100 % of control | [15] 97 % of control | [16] 97 % of control

CCN(CCO)CC1OC(OC)C2OC(C)(C)OC12 (centres undefined)
inactive: dose: 100.0 mg/kg/injection, schedule: Q01DX009 (ip), vehicle: saline 97 % of control | [14] 98 % of control | dose: 200.0 mg/kg/injection, schedule: Q01DX009 (ip), vehicle: saline 100 % of control | [15] 95 % of control | dose: 400.0 mg/kg/injection, schedule: Q01DX009 (ip), vehicle: saline 94 % of control | [16] 96 % of control

CCOC(=O)C(CBr)CBr
inactive: [1] 91 % of control | [2] 88 % of control | dose: 400.0 mg/kg/injection, schedule: Q04DX002 (ip), vehicle: saline 122 % of control

Cc1cc(C)c(C(=O)N/N=C/c2ccc(N(CCCl)CCCl)cc2)c(=O)[nH]1
inactive: dose: 50.0 mg/kg/injection, schedule: Q01DX001 (ip), vehicle: carboxymethylcellulose (CMC) 97 % of control | [11] 100 % of control | [12] 103 % of control | [13] 92 % of control

CCCCCCC(O)C/C=C/CCCCCCCC(=O)O (centres undefined)
inactive: [8] 96 % of control | [9] 93 % of control | [10] 86 % of control
